In ChEMBL document CHEMBL5579870, “Integrating Neuroprotective and Anti-inflammatory Strategies in the Development of PI3K Inhibitors for Enhanced Cancer Therapy” (ACS Med Chem Lett, 2024):

What was measured:
[1] = tested on: T47D; test: Antiproliferative activity against human T47D cells expressing PI3Kalpha H1047R mutant assessed as inhibition of cell proliferation measured after 72 hrs by CellTiter-Glo reagent based assay; type: functional
[2] = Cytotoxicity against human SK-BR-3 cells expressing wild type PI3Kalpha assessed as inhibition of cell proliferation measured after 72 hrs by CellTiter-Glo reagent based assay; type: toxicity
[3] = AUC(last) in CD-1 mouse at 10 mg/kg, po by LC/MS/MS analysis; type: ADME, organism-based; conditions: in vivo
[4] = Oral bioavailability in CD-1 mouse at 10 mg/kg by LC/MS/MS analysis; type: ADME, organism-based; conditions: in vivo

Compound	EC50 [1] [µM]	EC50 at 72 h [2] [µM]	AUC(0-t) [3] [ng·h/mL]	bioavailability [4] [%]
Cc1cc(C(C)Nc2ccc(F)cc2C(=O)O)c2nc(N3CCN(CC(F)(F)F)CC3)n(C)c(=O)c2c1 (stereo not drawn)	0.001	2		
Cc1cc(C(C)Nc2ccc(Cl)cc2C(=O)O)c2nc(N3Cc4ccc(F)cc4C3)n(C)c(=O)c2c1 (stereo not drawn)	0.001	2		
Cc1cc(C(C)Nc2ccccc2C(=O)O)c2nc(N3Cc4ccc(C#N)cc4C3)n(C)c(=O)c2c1 (stereo not drawn)	0.001	> 15		
Cc1cc(C(C)Nc2ccccc2C(=O)O)c2nc(N3CC[Si](C)(C)CC3)n(C)c(=O)c2c1 (stereo not drawn)	0.5	2		
CC(Nc1ccccc1C(=O)O)c1cc(Cl)cc2c(=O)n(C)c(N3CCN(CC(F)(F)F)CC3)nc12 (stereo not drawn)	0.5	> 15		
CC(Nc1ccccc1C(=O)O)c1cc(C(F)(F)F)cc2c(=O)n(C)c(N3CCN(CC(F)(F)F)CC3)nc12 (stereo not drawn)	0.5	2		
CC(Nc1ccc(F)cc1C(=O)O)c1cc(F)cc2c(=O)n(C)c(N3CCN(CC(F)(F)F)CC3)nc12 (stereo not drawn)	0.001	> 15		
Cc1cc(C(C)Nc2ccc(F)cc2C(=O)O)c2nc(N3CCC(C)(C)CC3)n(C)c(=O)c2c1 (stereo not drawn)	0.001	2	10700	61
